{
  "source": "patent US20100035848A1",
  "about": "“THERAPY FOR DISORDERS OF THE PROXIMAL DIGESTIVE TRACT” (priority 2008, published 2010)",
  "key": {"[1]": {"test_system": "gastric PGE2 synthesis", "assay": "Acute indomethacin-induced gastric toxicity in rats: gastric PGE2 synthesis", "assay_type": "in vivo, rat", "conditions": "indomethacin 20 mg/kg p.o.", "protocol": "A study was conducted to determine whether GL1001 would inhibit acute NSAID (indomethacin)-induced gastric toxicity in a rat model (Wallace et al. (1998) Gastroenterol. 115:101-109). Several modes of treatment with GL1001 or vehicle were employed, which included administration via drinking water, oral administration and subcutaneous administration as shown in Table 4. Irrespective of the route of drug or vehicle administration, male Wistar rats were deprived of food for 16 h prior to oral administration of 20 mg/kg indomethacin (Sigma) or vehicle (5% w/v sodium bicarbonate; 1 ml/kg). Three hours later the rats were sacrificed and the severity of gastric damage was blindly scored. This involved measurement of the lengths (in mm) of all hemorrhagic erosions and summing these to give a “gastric damage score” for each stomach. Samples of the stomach were taken for measurement of prostaglandin E2 (PGE2) synthesis as described by Wallace et al. (1998), supra, and myeloperoxidase activity as described by Souza et al. (2003) Am. J. Physiol. 285:[…]-61. Myeloperoxidase is an enzyme found in all cells of mycloid origin, but particularly enriched within neutrophils. It is therefore used as a biochemical marker of granulocyte infiltration into tissue. Each group consisted of 6 rats. As a negative control, one group received vehicle pretreatments (in the drinking water and by oral gavage) and then received vehicle instead of indomethacin. […] [table] In the experiments where GL1001 (or vehicle) was added to drinking water, the rats were provided with the modified drinking water for 2 days prior to administration of indomethacin (or vehicle). This included the period when the rats were deprived of food. GL1001 was prepared in 0.1M citrate buffer before being added to the drinking water. Based on average water consumption by rats, this was aimed at providing a daily dose of GL1100 of 1200 mg/kg (water consumption was monitored for several days prior to initiation of the study). Oral or subcutaneous administration of GL1001 (or vehicle) was performed 30 minutes prior to administration of indomethacin. Data are expressed as mean±SEM. When two groups of data were compared, a Student's t-test was used. When more than two groups of data were compared, a one-way analysis of variance followed by the Newman-Keuls test was used. An associated probability of less than 5% was considered statistically significant."}, "[2]": {"test_system": "myeloperoxidase", "assay": "Acute indomethacin-induced gastric toxicity in rats: gastric myeloperoxidase activity", "assay_type": "in vivo, rat", "conditions": "Group J: PGE2 100 μg/kg p.o., indomethacin 20 mg/kg p.o.; vehicle Group I 29.5 ± 2.8", "protocol": "A study was conducted to determine whether GL1001 would inhibit acute NSAID (indomethacin)-induced gastric toxicity in a rat model (Wallace et al. (1998) Gastroenterol. 115:101-109). Several modes of treatment with GL1001 or vehicle were employed, which included administration via drinking water, oral administration and subcutaneous administration as shown in Table 4. Irrespective of the route of drug or vehicle administration, male Wistar rats were deprived of food for 16 h prior to oral administration of 20 mg/kg indomethacin (Sigma) or vehicle (5% w/v sodium bicarbonate; 1 ml/kg). Three hours later the rats were sacrificed and the severity of gastric damage was blindly scored. This involved measurement of the lengths (in mm) of all hemorrhagic erosions and summing these to give a “gastric damage score” for each stomach. Samples of the stomach were taken for measurement of prostaglandin E2 (PGE2) synthesis as described by Wallace et al. (1998), supra, and myeloperoxidase activity as described by Souza et al. (2003) Am. J. Physiol. 285:[…]-61. Myeloperoxidase is an enzyme found in all cells of mycloid origin, but particularly enriched within neutrophils. […] Based on average water consumption by rats, this was aimed at providing a daily dose of GL1100 of 1200 mg/kg (water consumption was monitored for several days prior to initiation of the study). […] Data are expressed as mean±SEM. […]"}, "[3]": {"test_system": "diclofenac-induced gastric damage", "assay": "Acute diclofenac-induced gastric toxicity in rats: gastric damage score", "assay_type": "in vivo, rat", "conditions": "for Gastric damage score: Group D: PGE2 100 μg/kg oral 30 min before diclofenac 50 mg/kg oral, 3 h, Group B 17.80 ± 5.08", "protocol": "(§1) Male Wistar rats were deprived of food but not water for 16 hours prior to oral administration of GL1001 90 mg/kg, incubated for 30 minutes and then given oral diclofenac 50 mg/kg. Each group consisted of 6 rats. As a negative control, one group received vehicle pretreatment, and then received vehicle instead of diclofenac. A positive control group received PGE2 100 μg/kg orally, 30 minutes prior to administration of diclofenac. All treatments were administered by oral gavage.\n(§2) Three hours after diclofenac treatment, all animals were sacrificed and stomachs were removed and imaged to determine the severity of gastric damage. Additionally, stomach tissue samples were taken to assess disease activity and pharmacodynamic effects. Gastric damage scores were determined from photographic images (Ma & Wallace (2003) Am. J. Physiol. Gastrointest. Liver Physiol. 279; 341-346). Removed stomachs were opened along the greater curvature, pinned out on a wax block, and photographed along a 25 mm ruler reference with a digital 35 mm camera. The lesion area was then determined using enlarged images and computer software (www.scioncorp.co/pages/scion_image_windows.htm) that allows superimposed drawing of the perimeter of a wound and calculation of the area based on the ruler reference. Stomach samples (excluding forestomach) were used for measurements of PGE2 concentration, MPO activity and ACE2 activity. PRE2 determinations are used in this study as a hiomarker of diclofenac effect since its mechanism of action involves inhibition of cyclooxygenase (COX-2 and COX-1) enzymes which in turn results in inhibition of PGE2 synthesis. Concentration of PGE2 from stomach tissue samples was performed as described by Souza et al. (2003), supra, and quantification was obtained by LC-MS. MTO, an enzyme found in abundance in granulocytes, is used as a biochemical marker of tissue inflammation. When tissues undergo inflammatory processes, granulocytes are recruited to the site of inflammation and infiltrate the affected tissue giving rise to increase MPO activity (Souza et al. (2003), supra). Last, the extent of inhibition of ACE2 activity was determined to establish whether GL1001 was effective in inhibiting its ACE2 target in stomach tissues. The ACE2 activity assay is similar to the method of Vickers et al. (2002) J. Biol. Chem. 277:14838-14843, wherein purified recombinant ACE2 (100 pM) and a quenched fluorescent substrate (100-150 μM APK (7-methoxycoumarin-4-yl)acetyl-Ala-Pro-Lys (2,4-dinitrophenyl)) are used in end-point fluorescence reactions (excitation 320 nm, emission 405 nm). For stomach ACE2 measurements, tissues were homogenized in the presence of a general protease inhibitor (PMSF) and specific ACE inhibitors. […]\n(§3) Data are expressed as means with standard errors. […]"}, "[4]": {"test_system": "gastric PGE2", "assay": "Acute diclofenac-induced gastric toxicity in rats: gastric PGE2 concentration", "assay_type": "in vivo, rat", "protocol": "as §1\nas §2, with “PRE2 determinations are used in this study as a hiomarker of diclofenac effect since its mechanism of action involves inhibition of cyclooxygenase (COX-2 and COX-1) enzymes which in turn results in inhibition of PGE2 synthesis.” left out, “MTO, an enzyme found in abundance in granulocytes, is used as a biochemical marker of tissue inflammation. When tissues undergo inflammatory processes, granulocytes are recruited to the site of inflammation and infiltrate the affected tissue giving rise to increase MPO activity (Souza et al. (2003), supra).” left out, “nm).” for “nm). For stomach ACE2 measurements, tissues were homogenized in the presence of a general protease inhibitor (PMSF) and specific ACE inhibitors.”\nas §3"}, "[5]": {"molecular_target": "T1, ACE2 (Rattus norvegicus, UniProt Q5EGZ1)", "T1 construct": "from tissue; host or cells: rat stomach (excluding forestomach) homogenate", "T1 sequence (Q5EGZ1 18-805)": "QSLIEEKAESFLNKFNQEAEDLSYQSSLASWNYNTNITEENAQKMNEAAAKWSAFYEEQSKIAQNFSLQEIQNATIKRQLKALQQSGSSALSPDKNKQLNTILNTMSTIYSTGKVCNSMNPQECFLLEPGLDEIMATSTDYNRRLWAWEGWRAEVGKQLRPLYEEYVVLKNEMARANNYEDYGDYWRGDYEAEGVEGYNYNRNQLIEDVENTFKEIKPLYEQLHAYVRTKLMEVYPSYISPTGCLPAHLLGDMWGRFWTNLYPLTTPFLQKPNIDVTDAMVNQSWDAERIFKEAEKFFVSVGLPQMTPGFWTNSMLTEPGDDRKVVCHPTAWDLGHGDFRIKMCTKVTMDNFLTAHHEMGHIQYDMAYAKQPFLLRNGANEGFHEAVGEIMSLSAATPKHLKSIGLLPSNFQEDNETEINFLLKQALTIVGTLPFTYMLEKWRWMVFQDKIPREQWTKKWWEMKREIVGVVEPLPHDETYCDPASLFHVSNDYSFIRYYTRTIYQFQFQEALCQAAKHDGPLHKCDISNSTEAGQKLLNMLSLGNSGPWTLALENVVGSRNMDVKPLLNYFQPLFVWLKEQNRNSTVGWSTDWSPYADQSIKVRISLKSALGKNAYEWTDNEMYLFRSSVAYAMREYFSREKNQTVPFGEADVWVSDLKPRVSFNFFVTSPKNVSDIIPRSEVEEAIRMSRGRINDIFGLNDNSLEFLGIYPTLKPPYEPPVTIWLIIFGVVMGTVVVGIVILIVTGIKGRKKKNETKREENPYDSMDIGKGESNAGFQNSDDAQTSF", "assay": "Acute diclofenac-induced gastric toxicity in rats: ACE2 activity in stomach tissue", "assay_type": "in vivo", "protocol": "as §1\nas §2, with “PRE2 determinations are used in this study as a hiomarker of diclofenac effect since its mechanism of action involves inhibition of cyclooxygenase (COX-2 and COX-1) enzymes which in turn results in inhibition of PGE2 synthesis.” left out, “MTO, an enzyme found in abundance in granulocytes, is used as a biochemical marker of tissue inflammation. When tissues undergo inflammatory processes, granulocytes are recruited to the site of inflammation and infiltrate the affected tissue giving rise to increase MPO activity (Souza et al. (2003), supra).” left out, “nm).” for “nm). For stomach ACE2 measurements, tissues were homogenized in the presence of a general protease inhibitor (PMSF) and specific ACE inhibitors.”\nas §3"}, "[6]": {"test_system": "duodenal ulcer", "conditions": "administered to treat heart failure; Gidaiatov et al. (2000); cited from earlier work"}, "[7]": {"test_system": "gastric mucosal erosions, dyspeptic symptoms", "conditions": "cited from earlier work"}},
  "data": [
    {"smiles": "CCCCC[C@H](O)/C=C/[C@H]1[C@H](O)CC(=O)[C@@H]1C/C=C\\CCCC(=O)O", "note": "[PGE2, prostaglandin E2]", "values": [
      {"measurement": "Gastric PGE2 synthesis", "setting": "[1]; Group J: PGE2 100 μg/kg p.o., vehicle Group I 6.08 ± 1.00", "value": "6.10 ± 1.00", "unit": "ng/mg"},
      {"measurement": "Gastric MPO activity", "setting": "[2]", "value": "22.8 ± 2.2", "unit": "U/mg"},
      {"measurement": "Gastric damage score", "setting": "[3]", "value": 0},
      {"measurement": "Gastric damage score", "setting": "[3]; listed as PCGE2", "value": "total absence of gastric lesions"},
      {"measurement": "Gastric PGE2 concentration", "setting": "[4]; Group D: PGE2 100 μg/kg oral before diclofenac 50 mg/kg", "value": 0, "unit": "pg/mg"},
      {"measurement": "Gastric ACE2 activity", "setting": "[5]; Group D: PGE2 100 μg/kg oral before diclofenac 50 mg/kg, Group B 880 ± 39", "value": "688 ± 30", "unit": "pmol/mg"}
    ]},
    {"smiles": "O=C(O)Cc1ccccc1Nc1c(Cl)cccc1Cl", "note": "[diclofenac]", "values": [
      {"measurement": "mean gastric damage score", "setting": "[3]; diclofenac 50 mg/kg oral after vehicle pretreatment, 3 h (Group B)", "value": 17.8},
      {"measurement": "PGE2 levels in stomach tissue", "setting": "[4]; all treatment groups that received diclofenac 50 mg/kg oral, vehicle Group A 43.22 pg/mg", "value": "no detectable"},
      {"measurement": "Activity of ACE2 in stomach tissue", "setting": "[5]; diclofenac-treated Group B vs Group A, p=0.052", "value": "trend towards up-regulation"}
    ]},
    {"smiles": "CCOC(=O)[C@H](CCc1ccccc1)N[C@@H](C)C(=O)N1CCC[C@H]1C(=O)O", "note": "[enalapril]", "values": [
      {"measurement": "healing of duodenal ulcer, patients treated", "setting": "[6]", "value": 87, "unit": "%"},
      {"measurement": "percentage of patients with dyspeptic symptoms", "setting": "[7]; hypertensive patients, decreased from 78% upon treatment", "value": 40, "unit": "%"},
      {"measurement": "number of patients having gastric mucosal erosions", "setting": "[7]; of 30 hypertensive patients, decreased from 11 upon treatment", "value": 4}
    ]},
    {"smiles": "COc1ccc2c(c1)c(CC(=O)O)c(C)n2C(=O)c1ccc(Cl)cc1", "note": "[indomethacin, reference compound]", "values": [
      {"measurement": "reduction of gastric PGE2 synthesis", "setting": "[1]; irrespective of pretreatment, vehicle only Group E 82 ng/mg", "value": "> 92", "unit": "%"}
    ]}
  ]
}
